Measurements published in publication PMC10537618, “Effect of Betanin, the Major Pigment of Red Beetroot (Beta vulgaris L.), on the Activity of Recombinant Human Cytochrome P450 Enzymes” (Pharmaceuticals, 2023).

Columns and labels:
CYP2B6 = experiment: P450-Glo luminescence-based CYP induction assay in HepG2 cells, CYP2B6 (Luciferin-2B6); type: in vitro ADME, human; design: induction of CYP2B6 activity in HepG2 cells by positive control inducer: dose or concentration left out as unconfirmed
Procedure: CYP enzyme activity was measured using P50-Glo assay kits. Omeprazole (OPZ) 1 mM and rifampicin (RFC) 1 and 10 mM were used as positive controls for the luminescence-based assay. The data are expressed as a percentage of the control (DMSO 0.5%). Results are mean ± SEM of triplicate independent experiments.
HepG2 cells were seeded at a concentration of 3 × 10^4 cells per well for CYP1A2 and 1 × 10^5 cells per well for CYP2B6 and CYP2C9 in opaque white 96-well plates. After 24 h of incubation, the cells were combined with 0.5% DMSO (vehicle control), 1 mM omeprazole, 10 mM rifampicin, or 0.1–100 μM betanin for 48 h. The supernatant was then switched to fresh medium containing the same concentration of the compound and incubated for an additional 24 h. To measure luminescence, the culture medium was replaced with fresh medium containing the luciferin substrate and incubated at 37 °C in a 5% CO₂ incubator (Table 2). Next, 50 µL of each well was transferred to a well of a fresh 96-well opaque white cell culture plate and mixed with 50 µL of CYP Luciferin Detection Reagent at room temperature to initiate the enzymatic reaction. After incubation for 20 min, luminescence was measured using a SpectraMax M3 Multi-Mode Microplate Reader (Bio-Rad).

recombinant CYP2C19 = biological target: T1, recombinant CYP2C19 (Homo sapiens, UniProt P33261); experiment: Vivid fluorescence-based CYP inhibition assay, recombinant CYP2C19 (EOMCC substrate); type: in vitro ADME
T1 construct: purchased Thermo Fisher Scientific; host or cells: insect cells (microsomes)
Procedure: (§1) We measured the activity of six representative CYPs using Vivid CYP screening kits. CYP activity was evaluated using recombinant CYPs and specific fluorescent substrates 7-ethoxymethoxy-3-cyanocoumarin (EOMCC) and 7-benzyloxymethyloxy-3-cyanocoumarin (BOMCC).
(§2) Raw fluorescence data were normalized against control activity values of 0% and 100%. Control 0% activity values were obtained from samples consisting of 0.5% DMSO and the enzyme solvent buffer without the enzyme. Maximum 100% activity values were expressed as a reaction with only enzymes and 0.5% DMSO, with no other drugs. Furafylline (FRL) 100 μM, bupropion (BPP) 50 μM, omeprazole (OPZ) 50 μM, fluvoxamine (FVX) 100 μM, quinidine (QND) 50 μM, and ketoconazole (KCZ) 1 μM were used as positive controls for the fluorescence-based assay. […] Raw data were normalized using the software GraphPad Prism 8.02. The data represent the mean ± SEM of triplicate independent experiments.
(§3) Fluorescence-based assays were performed according to the manufacturer’s instructions. […] The plates were immediately measured in the kinetic mode using a SpectraMax M3 Multi-Mode Microplate Reader (Bio-Rad, Hercules, CA, USA). […] The signals were measured using a SpectraMax M3 Multi-Mode Microplate Reader (Bio-Rad). Data fitting generated a sigmoidal dose–response curve with values calculated using Microsoft Excel 2016 (Microsoft Corporation, Redmond, WA, USA).

recombinant CYP2B6 = biological target: T2, recombinant CYP2B6 (Homo sapiens, UniProt P20813); experiment: Vivid fluorescence-based CYP inhibition assay, recombinant CYP2B6 (BOMCC substrate); type: in vitro ADME
T2 construct: purchased Thermo Fisher Scientific; host or cells: insect cells (microsomes)
T2 sequence (P20813 1-491): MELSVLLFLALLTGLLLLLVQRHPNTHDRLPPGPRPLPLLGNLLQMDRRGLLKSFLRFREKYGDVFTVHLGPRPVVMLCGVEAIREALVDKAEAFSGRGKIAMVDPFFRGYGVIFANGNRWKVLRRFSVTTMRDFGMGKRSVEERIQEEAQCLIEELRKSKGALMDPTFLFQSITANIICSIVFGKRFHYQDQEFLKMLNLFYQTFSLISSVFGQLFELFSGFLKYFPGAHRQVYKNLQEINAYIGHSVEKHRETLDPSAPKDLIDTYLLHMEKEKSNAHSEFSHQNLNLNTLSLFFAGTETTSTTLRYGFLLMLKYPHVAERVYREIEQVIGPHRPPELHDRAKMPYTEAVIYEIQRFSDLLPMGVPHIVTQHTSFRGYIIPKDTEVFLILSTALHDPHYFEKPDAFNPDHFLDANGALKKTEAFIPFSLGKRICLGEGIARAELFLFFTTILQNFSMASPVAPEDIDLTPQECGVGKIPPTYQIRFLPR
Procedure: as §1, §2, §3

CYP1A2 = experiment: P450-Glo luminescence-based CYP induction assay in HepG2 cells, CYP1A2 (Luciferin-1A2); settings: betanin 0.1–100 μM, versus control (DMSO 0.5%)
Excerpt: (§4) Results are mean ± SEM of triplicate independent experiments.

HepG2 cells = experiment: MTT cell viability assay; type: cell-based, human; settings: 0.1–100 μM, 48 h
Procedure: Human hepatocellular carcinoma (HepG2) cells were cultured in Minimum Essential Medium (MEM) supplemented with 10% fetal bovine serum and 1% penicillin–streptomycin. HepG2 cells were maintained at 37 °C in a humidified environment with a 5% CO₂ atmosphere. The culture medium was replaced every day before measuring CYP activity. HepG2 cells were grown in opaque 96-well plates at a density of 1 × 10^4 cells/well. After 24 h, the cells were added with the desired concentration of betanin for 48 h. Next, 20 µL of 5 mg/mL MTT solution in PBS was added to each well and incubated for 2 h. After removing the supernatant, 100 µL of DMSO was dispensed into each well and the plate was incubated for 10 min.

CYP2C9 = experiment: P450-Glo luminescence-based CYP induction assay in HepG2 cells, CYP2C9 (Luciferin-H); type: in vitro ADME, human; settings: betanin 0.1–100 μM, versus control (DMSO 0.5%)
Excerpt: as §4

recombinant CYP2C9 = biological target: T3, recombinant CYP2C9 (Homo sapiens, UniProt P11712); experiment: Vivid fluorescence-based CYP inhibition assay, recombinant CYP2C9 (BOMCC substrate); type: in vitro ADME
T3 construct: purchased; host or cells: insect cells (microsomes)
Procedure: as §1, §2, §3

recombinant CYP2D6 = biological target: T4, recombinant CYP2D6 (Homo sapiens, UniProt P10635); experiment: Vivid fluorescence-based CYP inhibition assay, recombinant CYP2D6 (EOMCC substrate); type: in vitro ADME
T4 construct: purchased Thermo Fisher Scientific; host or cells: insect cells (microsomes)
Procedure: as §1, §2, §3

recombinant CYP1A2 = biological target: T5, recombinant CYP1A2 (Homo sapiens, UniProt P05177); experiment: Vivid fluorescence-based CYP inhibition assay, recombinant CYP1A2 (EOMCC substrate); type: in vitro ADME
T5 construct: purchased Thermo Fisher Scientific; host or cells: insect cells (microsomes)
T5 sequence (P05177 2-516 limits assumed): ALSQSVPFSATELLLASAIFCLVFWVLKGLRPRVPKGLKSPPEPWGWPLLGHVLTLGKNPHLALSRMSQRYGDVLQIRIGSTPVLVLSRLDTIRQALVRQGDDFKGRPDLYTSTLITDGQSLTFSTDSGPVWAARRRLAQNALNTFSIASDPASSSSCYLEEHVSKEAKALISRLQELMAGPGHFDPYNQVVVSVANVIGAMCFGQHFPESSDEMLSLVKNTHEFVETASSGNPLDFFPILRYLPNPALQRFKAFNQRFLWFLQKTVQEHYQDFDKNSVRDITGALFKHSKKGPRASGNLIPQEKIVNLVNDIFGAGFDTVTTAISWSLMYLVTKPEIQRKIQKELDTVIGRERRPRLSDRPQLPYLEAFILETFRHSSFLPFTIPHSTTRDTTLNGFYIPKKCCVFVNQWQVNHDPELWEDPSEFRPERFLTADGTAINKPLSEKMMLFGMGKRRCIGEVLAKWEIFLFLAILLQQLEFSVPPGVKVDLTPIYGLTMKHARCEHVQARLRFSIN
Procedure: as §1, §2, §3

recombinant CYP3A4 [1] = biological target: T6, recombinant CYP3A4 (Homo sapiens, UniProt P08684); experiment: CYP3A4 enzyme kinetics, Lineweaver–Burk plot and secondary plot for Ki; type: in vitro ADME
T6 construct: purchased Thermo Fisher Scientific; host or cells: insect cells (microsomes)
Procedure: Next, we measured the kinetics of betanin metabolization by recombinant CYP3A4. Using the Michaelis constant (Km) and Vmax, we generated a Lineweaver–Burk plot. To obtain inhibition constant (Ki) values, various concentrations of BOMCC were incubated in the absence or presence of 3–100 μM betanin.
Data were obtained from 30 min incubation with BOMCC (1–20 μM) in the absence or presence of betanin (3–100 μM). All data are represented as mean ± SD from at least three independent experiments.
CYP activity was measured using Vivid CYP screening kits supplied with P450 BACULOSOMES Plus Reagent containing each CYP. The assays were conducted in the absence or presence of betanin and different concentrations of specific substrates. BOMCC was used as a specific substrate for CYP3A4. Lineweaver–Burk plots were generated for the determination of CYP activity in the absence or presence of betanin.

recombinant CYP3A4 [2] = biological target: T6, recombinant CYP3A4; experiment: Vivid fluorescence-based CYP inhibition assay, recombinant CYP3A4 (BOMCC substrate); type: in vitro ADME
Procedure: as §1, §2
Fluorescence-based assays were performed according to the manufacturer’s instructions. Control, CYP positive control inhibitor, and betanin (0.1–100 μM) solutions were prepared by diluting the compounds with Vivid CYP Reaction Buffer (Table 1). Next, 40 µL of control, CYP positive control inhibitor, or betanin solution was dispensed into the wells of black 96-well plates. A Master Pre-Mix was prepared by diluting the P450 BAC-ULOSOMES Plus Reagent and Vivid Regeneration System in Vivid CYP Reaction Buffer. The P450 BACULOSOMES Plus Reagents are microsomes made from insect cells that express human cytochrome P450 reductase and CYP450 isozyme. […] The plates were immediately measured in the kinetic mode using a SpectraMax M3 Multi-Mode Microplate Reader (Bio-Rad, Hercules, CA, USA). […] The signals were measured using a SpectraMax M3 Multi-Mode Microplate Reader (Bio-Rad). Data fitting generated a sigmoidal dose–response curve with values calculated using Microsoft Excel 2016 (Microsoft Corporation, Redmond, WA, USA).

[3] = at any of the tested dosages (0.1–100 μM)
[4] = fluorescence-based, EOMCC substrate, betanin 0.1–100 μM
[5] = fluorescence-based, BOMCC substrate, betanin 0.1–100 μM

T6 sequence (P08684 2-503 limits assumed): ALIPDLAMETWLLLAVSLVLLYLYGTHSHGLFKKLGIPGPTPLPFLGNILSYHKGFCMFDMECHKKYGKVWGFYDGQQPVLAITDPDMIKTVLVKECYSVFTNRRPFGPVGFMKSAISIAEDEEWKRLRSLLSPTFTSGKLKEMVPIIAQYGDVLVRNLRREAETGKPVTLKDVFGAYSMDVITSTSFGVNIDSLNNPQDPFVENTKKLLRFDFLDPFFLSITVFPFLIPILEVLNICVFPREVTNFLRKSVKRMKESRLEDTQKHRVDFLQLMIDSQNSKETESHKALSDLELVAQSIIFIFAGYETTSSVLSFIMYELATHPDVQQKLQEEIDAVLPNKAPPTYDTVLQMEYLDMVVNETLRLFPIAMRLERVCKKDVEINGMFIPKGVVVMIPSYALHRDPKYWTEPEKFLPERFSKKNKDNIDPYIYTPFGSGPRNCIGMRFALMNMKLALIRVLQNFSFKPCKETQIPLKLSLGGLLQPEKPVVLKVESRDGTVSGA
T3 sequence (P11712 whole entry): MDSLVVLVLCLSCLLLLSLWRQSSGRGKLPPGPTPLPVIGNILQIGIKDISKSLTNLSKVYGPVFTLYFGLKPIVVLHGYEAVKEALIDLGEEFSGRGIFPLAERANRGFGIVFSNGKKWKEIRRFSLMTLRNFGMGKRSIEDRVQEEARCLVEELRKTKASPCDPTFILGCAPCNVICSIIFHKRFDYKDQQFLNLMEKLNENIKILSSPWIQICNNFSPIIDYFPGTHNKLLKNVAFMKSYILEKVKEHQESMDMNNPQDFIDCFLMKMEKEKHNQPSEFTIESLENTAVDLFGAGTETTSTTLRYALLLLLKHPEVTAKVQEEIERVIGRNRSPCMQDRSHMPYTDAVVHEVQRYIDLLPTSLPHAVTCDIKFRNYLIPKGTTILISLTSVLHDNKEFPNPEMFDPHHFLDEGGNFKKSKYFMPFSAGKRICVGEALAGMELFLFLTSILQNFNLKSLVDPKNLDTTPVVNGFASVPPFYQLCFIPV
T1 sequence (P33261 whole entry): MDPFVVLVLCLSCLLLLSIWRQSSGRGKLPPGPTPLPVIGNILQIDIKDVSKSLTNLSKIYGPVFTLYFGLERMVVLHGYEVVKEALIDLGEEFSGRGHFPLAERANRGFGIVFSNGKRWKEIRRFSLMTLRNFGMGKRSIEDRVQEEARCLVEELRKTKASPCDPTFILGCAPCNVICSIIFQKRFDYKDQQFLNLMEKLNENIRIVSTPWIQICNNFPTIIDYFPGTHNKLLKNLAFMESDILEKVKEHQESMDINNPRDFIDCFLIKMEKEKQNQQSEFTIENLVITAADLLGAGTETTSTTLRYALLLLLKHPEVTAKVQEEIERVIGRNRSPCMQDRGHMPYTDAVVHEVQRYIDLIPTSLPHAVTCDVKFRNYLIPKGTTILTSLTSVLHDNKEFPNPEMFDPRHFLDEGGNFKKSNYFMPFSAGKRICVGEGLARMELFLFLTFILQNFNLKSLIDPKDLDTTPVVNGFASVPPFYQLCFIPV
T4 sequence (P10635 whole entry): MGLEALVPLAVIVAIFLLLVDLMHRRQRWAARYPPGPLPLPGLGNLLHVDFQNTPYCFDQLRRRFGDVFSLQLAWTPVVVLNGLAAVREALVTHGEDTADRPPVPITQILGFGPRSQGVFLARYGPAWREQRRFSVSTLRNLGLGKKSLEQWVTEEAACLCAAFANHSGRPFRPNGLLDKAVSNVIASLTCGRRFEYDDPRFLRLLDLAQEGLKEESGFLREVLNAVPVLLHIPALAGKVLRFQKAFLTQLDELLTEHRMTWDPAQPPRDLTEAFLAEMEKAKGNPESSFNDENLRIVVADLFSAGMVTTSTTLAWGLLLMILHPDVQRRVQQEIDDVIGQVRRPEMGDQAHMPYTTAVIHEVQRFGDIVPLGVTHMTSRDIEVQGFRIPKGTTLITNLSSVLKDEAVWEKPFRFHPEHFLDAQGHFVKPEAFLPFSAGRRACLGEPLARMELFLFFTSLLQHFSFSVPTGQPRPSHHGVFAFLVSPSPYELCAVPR

induction of CYP2B6 activity in HepG2 cells by positive control inducer (CYP2B6; compared to the control group)	Compound	inhibitory effect on recombinant CYP2C19 (recombinant CYP2C19; [3])	IC50 (recombinant CYP2C19; [4])	inhibitory effect on recombinant CYP2B6 (recombinant CYP2B6; [3])	IC50 (recombinant CYP2B6; [5])	induction effect on CYP2B6 activity in HepG2 cells (CYP2B6; betanin 0.1–100 μM, versus control (DMSO 0.5%))	induction effect on CYP1A2 activity in HepG2 cells (CYP1A2)	cytotoxicity toward HepG2 cells (MTT) (HepG2 cells)	induction effect on CYP2C9 activity in HepG2 cells (CYP2C9)	inhibitory effect on recombinant CYP2C9 (recombinant CYP2C9; [3])	IC50 (recombinant CYP2C9; [5])	inhibitory effect on recombinant CYP2D6 (recombinant CYP2D6; 100 μM)	IC50 (recombinant CYP2D6; [4])	inhibitory effect on recombinant CYP1A2 (recombinant CYP1A2; [3])	IC50 (recombinant CYP1A2; [4])	Ki (recombinant CYP3A4 [1]; 1–20 μM BOMCC, 3, 10, 30 and 100 μM betanin, 30 min incubation, read-out: Ki (inhibition constant) for CYP3A4)	mode of inhibition of CYP3A4 (recombinant CYP3A4 [1]; Lineweaver–Burk and secondary plots)	inhibition of recombinant CYP3A4 (recombinant CYP3A4 [2]; 30 μM)	inhibition of recombinant CYP3A4 (recombinant CYP3A4 [2]; 100 μM)	IC50 (recombinant CYP3A4 [2]; fluorescence-based, BOMCC substrate, betanin 0.1–100 μM, 95% CI 19.09–23.06 μM)
significantly induced	CO[C@H]1/C=C/O[C@@]2(C)Oc3c(C)c(O)c4c(O)c(c(/C=N/N5CCN(C)CC5)c(O)c4c3C2=O)NC(=O)/C(C)=C\C=C\[C@H](C)[C@H](O)[C@@H](C)[C@@H](O)[C@@H](C)[C@H](OC(C)=O)[C@@H]1C [rifampin, reference compound]																			
	O=C(O)C1=C/C(=C/C=[N+]2/c3cc(O)c(OC4OC(CO)[C@@H](O)C(O)C4O)cc3CC2C(=O)[O-])CC(C(=O)O)N1 (stereo in doubt) [betanin, Betanin]	≤ 30%	> 100 µM	≤ 30%	> 100 µM	did not show any induction effect	did not show any induction effect	no cytotoxicity	did not show any induction effect	≤ 30%	> 100 µM	33%	> 100 µM	≤ 30%	> 100 µM	19.5 µM	competitive inhibitor	58%	87%	21 µM
